Common to all, as to type: cell-based
One test deals with Pseudomonas cepacia. Put plainly: Challenge test, repeated inoculation with a bacterium until failure. The following applies: Series IV, pH 5.5. How it is done: A test was devised to assess the ability of selected hydroxyorganic acids to preserve, against microbial spoilage, compositions according to the invention and, by way of comparison, others containing conventional chemical preservative substances.
(§1) This test involved incubating under standard conditions test compositions which have been inoculated with a selected bacterium, yeast or a mixture of moulds. […] Accordingly, the higher the number of "challenges", the better is the preservative. substance in preventing or at least delaying microbial spoilage.
(§2) The micro-organisms selected for this test were: • i) Pseudomonas cepacia - a gram-negative bacterium, • ii) Candida parapsilosis - a yeast, and • iii) Aspergillus niger & Penicillium sp., - a mixture of moulds.
(§3) The method of testing was as follows: • i) Introduce aseptically 99 ml of test composition into a 250 ml flask and add 1 ml of inoculum of one of the test organisms (see above), to provide a dilution of 10⁶ cells/ml in the composition. • ii) mix and incubate at 28°C for 24 hours. • iii) remove 1 ml of incubated composition from the flask and add to it 9 ml of peptone water/Tween 80 as diluent and mix thoroughly. • iv) place 1 ml of diluted sample into a petri dish and add warm, molten agar (40°C) and mix to distribute culture uniformly and allow to set. • v) incubate plates for 3 days at 28°C and then count colonies and note log reduction of count (due to the presence of the preservative in the original culture composition).
(§4) The inoculation of the organisms originally introduced into each composition is then repeated at 24 hour intervals, following removal of the first total viable count sample, the plating out and counting procedure being repeated on each occasion. The test is terminated when the samples show a contamination level greater than 10² counts per ml on 2 consecutive days. This point is regarded as the failure point for the composition under test.
(§5) The greater the number of inoculations of contaminant organisms before this level of contamination is established in the composition, the better the preservative system.

The subject of test [1] is Aspergillus niger & Penicillium sp. Put plainly: Mould challenge test (mould spore suspension, viable count after 1, 7, 14, 28 days). The following applies: pH 5.5. The protocol:
as §2
The above procedure applies to the inoculation of the bacterium and the yeast, and this procedure was varied slightly with the mixed culture of moulds as follows: • i) two samples of each test composition (9.9 ml and 9 ml) were transferred to sterile flasks and 0.1 ml or 1 ml of a mould spore suspension (approximately 10⁸ spores per ml) was introduced into the respective samples and thoroughly mixed. The inoculated samples were incubated at 28°C for up to 28 days with 1 ml samples being aseptically removed for the total viable count as outlined above using Sabouraud's dextrose agar after 1, 7, and 28 days. • ii) "Low risk" compositions eliminate mould spores in 1 to 2 days, "medium risk" compositions take 7 to 14 days to eliminate the spores and the "high risk" compositions still have surviving mould spores after 14 days incubation.

The subject of test [2] is one of the test organisms. Put plainly: Challenge test, inoculations to failure, Series V (organism not stated in Table 10). The conditions noted are these: 1% w/w added to oil-in-water skin cream, pH 5.5. How it is done:
as §1, §3, §4, §5
Various preservative materials were added to samples of this base formulation. The resulting compositions were subjected to the mould challenge test, as set out in Table 10 below.

Where [3] appears, read: Series IV, 0.1 % w/w in water-in-oil cream.
Where [4] appears, read: Series IV, 0.25 % w/w in water-in-oil cream.
[5] abbreviates: Series IV, 0.5 % w/w in water-in-oil cream.
Where [6] appears, read: Series IV, 0.75 % w/w in water-in-oil cream.
Where [7] appears, read: Series IV, 1 % w/w in water-in-oil cream.
[8] abbreviates: Series V, 1% w/w added to oil-in-water skin cream.

Regarding `CCCCCCC(O)C(=O)O` (stereo not shown) [2-hydroxyoctanoic acid], the “number of inoculations of bacteria to failure” value is 4 in the test on Pseudomonas cepacia (0.1 % w/w in water-in-oil cream); 4 in the test with Pseudomonas cepacia (0.25 % w/w in water-in-oil cream); 20 in the test with Pseudomonas cepacia (0.5 % w/w in water-in-oil cream); more than 20 with Pseudomonas cepacia (0.75 % w/w in water-in-oil cream); more than 20 in the test on Pseudomonas cepacia (1 % w/w in water-in-oil cream). Further, the “mould challenge 1%” value in test [1] (setting [3]) is listed as “++”; in test [1] (setting [4]), “++”; in test [1] (setting [5]) it was “+”; in test [1] (setting [6]), “+”; in test [1] (setting [7]), “-”; in test [1] (setting [8]), “+”. Besides, the “mould challenge 10%” value in test [1] (setting [3]) was “++”; in test [1] (setting [4]) it was “++”; in test [1] (setting [5]), “++”; in test [1] (setting [6]), “++”; in test [1] (setting [7]), “-”. In addition, in test [2], the “No of inoculations to failure” value is given as more than 20.

Take `COCCCCCCCC=CCC(O)C(=O)O` (stereo not shown) ['oxa' hydroxy acid, 2-Hydroxy-13-oxa-4-tetradecenoic acid]: the “preservation against the mould challenge (in words)” value in test [1] (Series II) is “good preservation”.

In the case of `CCCCCCCCCCCC(=O)O` [Lauric acid, reference compound], the “mould challenge 1%” value in test [1] (setting [8]) is listed as “++++”. Further, the “No of inoculations to failure” value in test [2] was 1.

In the case of `CCCCCCCCCCCC(=O)OCC(O)CO` (stereo not shown) [Monolaurin, reference compound], the “mould challenge 1%” value in test [1] (setting [8]) is “++++”. Moreover, the “No of inoculations to failure” value in test [2] is 1.

For the origin of these results see patent EP0568307A1, “Cosmetic composition containing alpha hydroxy carboxylic acids as preservatives” (priority 1992, dated 1993).
